Columns and labels:
[1] = target: T1, mAChE (Mus musculus, UniProt P21836); assay: In-vitro inhibitory activity against mAChE, method of Ellman; assay type: biochemical, murine
T1 construct: donated by Florian Nachon (IBS, Grenoble)
T1 sequence (P21836 32-614): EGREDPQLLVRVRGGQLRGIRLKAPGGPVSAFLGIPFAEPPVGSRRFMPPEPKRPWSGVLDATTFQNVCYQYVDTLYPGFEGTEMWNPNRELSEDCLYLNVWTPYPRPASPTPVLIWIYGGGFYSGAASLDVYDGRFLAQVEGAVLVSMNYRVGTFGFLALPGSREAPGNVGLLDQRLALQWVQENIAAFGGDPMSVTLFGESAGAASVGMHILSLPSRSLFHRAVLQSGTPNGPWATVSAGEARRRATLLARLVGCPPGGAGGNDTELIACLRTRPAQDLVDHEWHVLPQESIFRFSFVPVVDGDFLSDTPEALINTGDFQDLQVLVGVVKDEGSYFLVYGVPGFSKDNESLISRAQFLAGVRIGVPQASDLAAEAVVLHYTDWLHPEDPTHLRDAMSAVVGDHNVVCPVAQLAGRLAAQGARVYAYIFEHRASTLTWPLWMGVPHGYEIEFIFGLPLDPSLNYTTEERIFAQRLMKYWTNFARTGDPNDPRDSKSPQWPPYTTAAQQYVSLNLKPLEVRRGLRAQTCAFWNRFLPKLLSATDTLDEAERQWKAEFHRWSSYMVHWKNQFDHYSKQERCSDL
Procedure: (§1) The inhibitory potencies of the compounds against the ChEs were determined using the method of Ellman[32].
(§2) The enzyme solutions were prepared by dilution of the concentrated stocks in phosphate-buffered solution (0.1 M, pH 8.0). […] The reactions were started by addition of the substrate, at room temperature. The final content of the organic solvent (DMSO) was always 1%. […] To determine the blank value (b), phosphate-buffered solution replaced the enzyme solution. The initial velocity (v0) was calculated from the slope of the linear trend obtained, with each measurement carried out in triplicate. […] The compounds were added to each well at a final concentration of 10 μM. […] The initial velocities in the presence of the test compounds (vi) were calculated. The inhibitory potencies are expressed as the residual activities (RA = (vi – b) / (vo – b)). […] The IC50 values were obtained by plotting the residual enzyme activities against the applied inhibitor concentrations, with the experimental data fitted to Equation (1):
(§3) where X is the logarithm of the inhibitor concentration, and Y is the residual activity. For the fitting procedure, the Gnuplot software and an in-house python script were used.

[2] = target: T2, huBChE (Homo sapiens, UniProt P06276); assay type: biochemical; conditions: for IC50: Supplementary Table 1, head prints no unit, nM, read-out: IC50 ±SEM huBChE
T2 construct: made in house
Procedure: as §1, §2, §3

[3] = residual activity at 10 µM, %RA >75% was considered no inhibition, Supplementary Table 1

T2 sequence (P06276 29-602): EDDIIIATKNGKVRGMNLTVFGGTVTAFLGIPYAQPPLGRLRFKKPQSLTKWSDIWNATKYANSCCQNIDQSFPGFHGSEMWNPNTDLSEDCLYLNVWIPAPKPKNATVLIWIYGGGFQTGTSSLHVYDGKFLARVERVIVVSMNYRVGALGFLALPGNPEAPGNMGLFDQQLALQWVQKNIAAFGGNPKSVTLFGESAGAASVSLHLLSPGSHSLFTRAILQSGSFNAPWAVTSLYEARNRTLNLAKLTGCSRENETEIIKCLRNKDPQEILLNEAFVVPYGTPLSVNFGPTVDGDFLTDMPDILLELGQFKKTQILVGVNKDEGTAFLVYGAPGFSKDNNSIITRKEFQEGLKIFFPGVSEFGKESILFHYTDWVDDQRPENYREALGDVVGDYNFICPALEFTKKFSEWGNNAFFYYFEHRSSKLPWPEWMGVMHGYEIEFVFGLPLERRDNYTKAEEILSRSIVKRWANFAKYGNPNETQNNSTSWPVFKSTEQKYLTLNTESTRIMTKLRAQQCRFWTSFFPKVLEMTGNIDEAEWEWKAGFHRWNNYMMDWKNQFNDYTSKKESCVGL

Row | Structure (SMILES) | %RA at 10 µM ±SEM mAChE [1, 3] | IC50 [2] | %RA at 10 µM ±SEM mAChE ([1]; residual activity at 10 μM, %RA > 75% was considered as no inhibition, Table 1) | %RA at 10μM ± SEM huBChE ([2]; residual activity at 10 μM, Table 1)
1 | COCCN(CC1CCCN(C2Cc3ccccc3C2)C1)S(=O)(=O)c1ccc(C)cc1 (racemic) [compound 17, (±)-N-((1-(2,3-dihydro-1H-inden-2-yl)piperidin-3-yl)methyl)-N-(2-methoxyethyl)-4-methylbenzenesulfonamide] | 86% ±3% | 279 ± 8 nM |  | 
2 | COCCN(CC1CCCN(C2Cc3ccccc3C2)C1)S(=O)(=O)c1ccc(F)cc1 (racemic) [compound 18, (±)-N-((1-(2,3-dihydro-1H-inden-2-yl)piperidin-3-yl)methyl)-4-fluoro-N-(2-methoxyethyl)benzenesulfonamide] | 88% ±2% | 887 ± 80 nM |  | 
3 | COCCN(CC1CCCN(C2Cc3ccccc3C2)C1)S(=O)(=O)c1ccc(OC)cc1 (racemic) [compound 19, (±)-N-((1-(2,3-dihydro-1H-inden-2-yl)piperidin-3-yl)methyl)-4-methoxy-N-(2-methoxyethyl)benzenesulfonamide] | 87% ±7% | 482 ± 66 nM |  | 
4 | COCCN(CC1CCCN(C2Cc3ccccc3C2)C1)S(=O)(=O)c1ccc([N+](=O)[O-])cc1 (racemic) [compound 20, (±)-N-((1-(2,3-dihydro-1H-inden-2-yl)piperidin-3-yl)methyl)-N-(2-methoxyethyl)-4-nitrobenzenesulfonamide] | 91% ±1% | 3470 ± 52 nM |  | 
5 | COCCN(CC1CCCN(C2Cc3ccccc3C2)C1)S(=O)(=O)c1ccccc1C(=O)OC (racemic) [compound 21, (±)-methyl 2-(N-((1-(2,3-dihydro-1H-inden-2-yl)piperidin-3-yl)methyl)-N-(2-methoxyethyl)sulfamoyl)benzoate] | 94% ±0.001% | 359 ± 18 nM |  | 
6 | COCCN(CC1CCCN(C2Cc3ccccc3C2)C1)S(=O)(=O)c1ccc(N)cc1 (racemic) [compound 22, (±)-4-amino-N-((1-(2,3-dihydro-1H-inden-2-yl)piperidin-3-yl)methyl)-N-(2-methoxyethyl)benzenesulfonamide] | 91% ±1% | 314 ± 36 nM |  | 
7 | COCCN(CC1CCCN(C2Cc3ccccc3C2)C1)S(=O)(=O)c1ccc(NC(C)=O)cc1 (racemic) [compound 23, (±)-N-(4-(N-((1-(2,3-dihydro-1H-inden-2-yl)piperidin-3-yl)methyl)-N-(2-methoxyethyl)sulfamoyl)phenyl)acetamide] | 85% ±5% | 321 ± 35 nM |  | 
8 | COCCN(CC1CCCN(C2Cc3ccccc3C2)C1)S(=O)(=O)c1cccc(NC(C)=O)c1 (racemic) [compound 24, (±)-N-(3-(N-((1-(2,3-dihydro-1H-inden-2-yl)piperidin-3-yl)methyl)-N-(2-methoxyethyl)sulfamoyl)phenyl)acetamide] | 95% ±4% | 8210 ± 601 nM |  | 
9 | CNC(=O)c1ccccc1S(=O)(=O)N(CCOC)CC1CCCN(C2Cc3ccccc3C2)C1 (racemic) [compound 25, (±)-2-(N-((1-(2,3-dihydro-1H-inden-2-yl)piperidin-3-yl)methyl)-N-(2-methoxyethyl)sulfamoyl)-N-methylbenzamide] | 101% ±4% | 3220 ± 492 nM |  | 
10 | COCCN(CC1CCCN(Cc2ccc(F)cc2)C1)S(=O)(=O)c1ccc2ccccc2c1 (racemic) [compound 37, (±)-N-((1-(4-fluorobenzyl)piperidin-3-yl)methyl)-N-(2-methoxyethyl)naphthalene-2-sulfonamide] | 89% ±3% | 23.1 ± 6 nM |  | 
11 | COCCN(CC1CCCN(Cc2cccc(F)c2)C1)S(=O)(=O)c1ccc2ccccc2c1 (racemic) [compound 38, (±)-N-((1-(3-fluorobenzyl)piperidin-3-yl)methyl)-N-(2-methoxyethyl)naphthalene-2-sulfonamide] | 99% ±0.001% | 49.1 ± 1.2 nM |  | 
12 | COCCN(CC1CCCN(Cc2ccc(C#N)cc2)C1)S(=O)(=O)c1ccc2ccccc2c1 (racemic) [compound 39, (±)-N-((1-(4-cyanobenzyl)piperidin-3-yl)methyl)-N-(2-methoxyethyl)naphthalene-2-sulfonamide] | 97% ±2% | 1460 ± 115 nM |  | 
13 | COCCN(CC1CCCN(Cc2cccc(C#N)c2)C1)S(=O)(=O)c1ccc2ccccc2c1 (racemic) [compound 40, (±)-N-((1-(3-cyanobenzyl)piperidin-3-yl)methyl)-N-(2-methoxyethyl)naphthalene-2-sulfonamide] | 93% ±3% | 338 ± 8 nM |  | 
14 | COCCN(CC1CCCN(Cc2ccc(N(C)C)cc2)C1)S(=O)(=O)c1ccc2ccccc2c1 (racemic) [compound 41, (±)-N-((1-(4-(dimethylamino)benzyl)piperidin-3-yl)methyl)-N-(2-methoxyethyl)naphthalene-2-sulfonamide] | 105% ±6% | 311 ± 22 nM |  | 
15 | COCCN(CC1CCCN(Cc2ccccc2)C1)S(=O)(=O)c1cccc2ccccc12 (racemic) [compound 42, (±)-N-((1-benzylpiperidin-3-yl)methyl)-N-(2-methoxyethyl)naphthalene-1-sulfonamide] | 94% ±4% | 59 ± 5.4 nM |  | 
16 | COCCN(CC1CCCN(Cc2ccccc2)C1)S(=O)(=O)c1ccc2ccc(OC)cc2c1 (racemic) [compound 43, (±)-N-((1-benzylpiperidin-3-yl)methyl)-7-methoxy-N-(2-methoxyethyl)naphthalene-2-sulfonamide] | 95% ±7% | 156 ± 33 nM |  | 
17 | CCN(CC1CCCN(Cc2ccccc2)C1)S(=O)(=O)c1ccc2ccccc2c1 (racemic) [compound 46, (±)-N-((1-benzylpiperidin-3-yl)methyl)-N-ethylnaphthalene-2-sulfonamide] | 93% ±2% | 38 ± 2.6 nM |  | 
18 | CCCN(CC1CCCN(Cc2ccccc2)C1)S(=O)(=O)c1ccc2ccccc2c1 (racemic) [compound 47, (±)-N-((1-benzylpiperidin-3-yl)methyl)-N-propylnaphthalene-2-sulfonamide] | 84% ±3% | 42.8 ± 6.4 nM |  | 
19 | CCCCN(CC1CCCN(Cc2ccccc2)C1)S(=O)(=O)c1ccc2ccccc2c1 (racemic) [compound 48, (±)-N-((1-benzylpiperidin-3-yl)methyl)-N-butylnaphthalene-2-sulfonamide] | 90% ±1% | 35.5 ± 4.4 nM |  | 
20 | COCCCN(CC1CCCN(Cc2ccccc2)C1)S(=O)(=O)c1ccc2ccc(OCC#N)cc2c1 (racemic) [compound 49, (±)-N-((1-benzylpiperidin-3-yl)methyl)-7-(cyanomethoxy)-N-(3-methoxypropyl)naphthalene-2-sulfonamide] | 93% ±3% | 113 ± 8 nM |  | 
21 | O=S(=O)(NCC1CCCN(Cc2ccncc2)C1)c1ccc2ccccc2c1 (racemic) [compound 64, (±)-N-((1-(pyridin-4-ylmethyl)piperidin-3-yl)methyl)naphthalene-2-sulfonamide] | 95% ±5% | 1670 ± 256 nM |  | 
22 | Cc1nc(CN2CCCC(CNS(=O)(=O)c3ccc4ccccc4c3)C2)cs1 (racemic) [compound 65, (±)-N-((1-((2-methylthiazol-4-yl)methyl)piperidin-3-yl)methyl)naphthalene-2-sulfonamide] | 71% ±4% | 336 ± 31 nM |  | 
23 | Cc1cccc(CN2CCCC(CNS(=O)(=O)c3ccc4ccccc4c3)C2)c1 (racemic) [compound 66, (±)-N-((1-(3-methylbenzyl)piperidin-3-yl)methyl)naphthalene-2-sulfonamide] | 57% ±4% | 287 ± 22 nM |  | 
24 | O=S(=O)(NCC1CCCN(Cc2ccc(F)cc2Cl)C1)c1ccc2ccccc2c1 (racemic) [compound 67, (±)-N-((1-(2-chloro-4-fluorobenzyl)piperidin-3-yl)methyl)naphthalene-2-sulfonamide] | 73% ±4% | 347 ± 60 nM |  | 
25 | O=S(=O)(NCC1CCCN(Cc2ccc(F)cc2)C1)c1ccc2ccccc2c1 (racemic) [compound 68, (±)-N-((1-(4-fluorobenzyl)piperidin-3-yl)methyl)naphthalene-2-sulfonamide] | 75% ±4% | 583 ± 43 nM |  | 
26 | N#Cc1ccc(CN2CCCC(CNS(=O)(=O)c3ccc4ccccc4c3)C2)cc1 (racemic) [compound 69, (±)-N-((1-(4-cyanobenzyl)piperidin-3-yl)methyl)naphthalene-2-sulfonamide] | 93% ±5% | 2090 ± 328 nM |  | 
27 | COCCCN(CC1CCN(Cc2ccccc2)CC1)S(=O)(=O)c1ccc2ccccc2c1 [compound 6, N-((1-benzylpiperidin-4-yl)methyl)-N-(3-methoxypropyl)naphthalene-2-sulfonamide] | 95% ±4% |  | 95% ± 4% | 0.93% ± 0.27%

Reference: PMC5175178, “Development of an in-vivo active reversible butyrylcholinesterase inhibitor” (Scientific Reports, 2016)
